From patent EP4772186A1, “USE AND COMPOSITION OF POSTBIOTIC OF LACTOBACILLUS PARACASEI ET-22” (Inner Mongolia Yili Industrial Group Co., Ltd., priority 2023, dated 2025)

Test system: VSC concentration
Test: in vitro Halimeter determination of VSC concentration in saliva fermentation
Format: cell-based, halitosis subjects (saliva)
Conditions: compared with CK group, anaerobic cultivation 10 hours
Procedure: Fresh saliva was collected from 10 halitosis subjects (Halimeter index >120). Subjects were required not to consume any food or drink for 2 hours before donating saliva. Saliva was directly spat into a saliva collection tube, 5 ml per person, and mixed. The mixture was centrifuged at 4500 rpm for 10 minutes, and the supernatant was collected, aliquoted, and stored at -80°C for subsequent experimental studies.
(§1) Lysate observation group: In a 10 ml sample vial, 100 µl of saliva was added first, followed by the separate addition of ET-22 viable bacteria (1.0×10^9 CFU/ml), ET-22 heat-inactivated bacterial cells (obtained by inactivating viable bacteria at 1.0×10^9 CFU/ml), and lysate (obtained by inactivating and then filtering viable bacteria at 1.0×10^9 CFU/ml), each at 100µl. Then, 1.8 ml of SHI medium was added. After filling with nitrogen, anaerobic cultivation was performed for 10 hours. Then, the obtained culture was placed in a 60°C water bath for 30-min incubation. VSC concentration was measured using the in vitro Halimeter method.
(§2) Group of two nucleotides: In a 10 ml sample vial, 100 µl of saliva was added first, followed by the separate addition of ET-22 viable bacteria (1.0×10^9 CFU/ml), ET-22 heat-inactivated bacterial cells (obtained by inactivating viable bacteria at 1.0×10^9 CFU/ml), NAD, and FAD (500 µg/ml, 100 µg/ml, 10 µg/ml), each at 100µl. Then, 1.8 ml of SHI medium was added. After filling with nitrogen, anaerobic cultivation was performed for 10 hours. Then, the obtained culture was placed in a 60°C water bath for 30-min incubation. VSC concentration was measured using the in vitro Halimeter method.
as §2, with “five organic acids:” for “two nucleotides:”, “heat-inactivating” for “inactivating”, “CFU/ml),” for “CFU/ml), NAD,”, “five organic acid components” for “FAD”
as §2, with “Observation group” for “Group”, “four polypeptides:” for “two nucleotides:”, “heat-inactivating” for “inactivating”, “CFU/ml),” for “CFU/ml), NAD,”, “components of four polypeptides” for “FAD”
as §1, with “Peptidoglycan” for “Lysate observation”, “peptidoglycan (peptidoglycan extracted from” for “lysate (obtained by inactivating and then filtering”, “CFU/ml).” for “CFU/ml), each at 100µl.”, “method. […]” for “method.”

Measured: VSC concentration

Cc1cc2nc3c(=O)[nH]c(=O)nc-3n(C[C@H](O)[C@H](O)[C@H](O)COP(=O)(O)OP(=O)(O)OC[C@H]3O[C@@H](n4cnc5c(N)ncnc54)[C@H](O)[C@@H]3O)c2cc1C [FAD, Flavin adenine dinucleotide (FAD)]
no significant change: high concentration (500 µg/ml) | low concentration (10 µg/ml) | medium concentration (100 µg/ml)
